Columns and labels:
Type in all cases: functional
ACHN = assay: Cytotoxicity against Homo sapiens (human) ACHN cells after 48 hr by sulforhodamine B assay
786-0 = assay: Cytotoxicity against Homo sapiens (human) 786-0 cells after 48 hr by sulforhodamine B assay; details: 786-0, 48 h
SK-OV-3 = assay: Cytotoxicity against Homo sapiens (human) SKOV3 cells after 48 hr by sulforhodamine B assay; details: SK-OV-3, 48 h
UACC-62 = assay: Cytotoxicity against Homo sapiens (human) UACC62 cells after 48 hr by sulforhodamine B assay; details: UACC-62, 48 h
SK-MEL-28 = assay: Cytotoxicity against Homo sapiens (human) SK-MEL-28 cells after 48 hr by sulforhodamine B assay; details: SK-MEL-28, 48 h
U-251 = assay: Cytotoxicity against Homo sapiens (human) U251 cells after 48 hr by sulforhodamine B assay; details: U-251, 48 h
T47D = assay: Cytotoxicity against Homo sapiens (human) T47D cells after 48 hr by sulforhodamine B assay
MDA-MB-435 = assay: Cytotoxicity against Homo sapiens (human) MDA-MB-435 cells after 48 hr by sulforhodamine B assay; details: MDA-MB-435, 48 h
BT-549 = assay: Cytotoxicity against Homo sapiens (human) BT549 cells after 48 hr by sulforhodamine B assay; details: BT-549, 48 h
Hs-578T = assay: Cytotoxicity against Homo sapiens (human) Hs 578T cells after 48 hr by sulforhodamine B assay
[1] = Cytotoxicity against Homo sapiens (human) NCI-ADR-RES cells after 48 hr by sulforhodamine B assay
MDA-MB-231 = assay: Cytotoxicity against Homo sapiens (human) MDA-MB-231 cells after 48 hr by sulforhodamine B assay; details: MDA-MB-231, 48 h
MCF7 = assay: Cytotoxicity against Homo sapiens (human) MCF7 cells after 48 hr by sulforhodamine B assay; details: MCF7, 48 h
UO-31 = assay: Cytotoxicity against Homo sapiens (human) UO31 cells after 48 hr by sulforhodamine B assay; details: UO-31, 48 h
PC-3 = assay: Cytotoxicity against Homo sapiens (human) PC3 cells after 48 hr by sulforhodamine B assay; details: PC-3, 48 h
SN12C = assay: Cytotoxicity against Homo sapiens (human) SN12C cells after 48 hr by sulforhodamine B assay
RXF 393 = assay: Cytotoxicity against Homo sapiens (human) RXF393 cells after 48 hr by sulforhodamine B assay; details: RXF 393, 48 h
SF-268 [2] = assay: Cytotoxicity against Homo sapiens (human) SF268 cells after 48 hr by sulforhodamine B assay; details: SF-268, 48 h
KM12 = assay: Cytotoxicity against Homo sapiens (human) KM12 cells after 48 hr by sulforhodamine B assay; details: KM12, 48 h
HCT-15 = assay: Cytotoxicity against Homo sapiens (human) HCT15 cells after 48 hr by sulforhodamine B assay; details: HCT-15, 48 h
COLO 205 = assay: Cytotoxicity against Homo sapiens (human) COLO205 cells after 48 hr by sulforhodamine B assay; details: COLO 205, 48 h
NCI-H522 = assay: Cytotoxicity against Homo sapiens (human) NCI-H522 cells after 48 hr by sulforhodamine B assay; details: NCI-H522, 48 h
NCI-H460 [3] = assay: Cytotoxicity against Homo sapiens (human) NCI-H460 cells after 48 hr by sulforhodamine B assay; details: NCI-H460, 48 h
NCI-H322M = assay: Cytotoxicity against Homo sapiens (human) NCI-H322M cells after 48 hr by sulforhodamine B assay
NCI-H23 = assay: Cytotoxicity against Homo sapiens (human) NCI-H23 cells after 48 hr by sulforhodamine B assay; details: NCI-H23, 48 h
NCI-H226 = assay: Cytotoxicity against Homo sapiens (human) NCI-H226 cells after 48 hr by sulforhodamine B assay; details: NCI-H226, 48 h
HOP-62 = assay: Cytotoxicity against Homo sapiens (human) HOP62 cells after 48 hr by sulforhodamine B assay; details: HOP-62, 48 h
HOP-92 = assay: Cytotoxicity against Homo sapiens (human) HOP92 cells after 48 hr by sulforhodamine B assay; details: HOP-92, 48 h
MOLT-4 = assay: Cytotoxicity against Homo sapiens (human) MOLT4 cells after 48 hr by sulforhodamine B assay; details: MOLT-4, 48 h
CCRF-CEM = assay: Cytotoxicity against Homo sapiens (human) CCRF-CEM cells after 48 hr by sulforhodamine B assay
SF-268 [4] = assay: Cytotoxicity against Homo sapiens (human) SF268 cells assessed as cell growth at 10^-4 M after 48 hr by […] assay; details: SF-268, 48 h, read-out: Activity
NCI-H460 [5] = assay: Cytotoxicity against Homo sapiens (human) NCI-H460 cells assessed as cell growth at 10^-4 M after 48 hr by Alamar blue assay; details: NCI-H460, 48 h, read-out: Activity
[6] = read-out: LC50 (the source's name)

## ClCc1ccccc1Cn1cnc2c(Cl)ncnc21
ACHN
  GI50: 2.7 µM
  TGI: 6.16 µM
ACHN; [6]
  CC50: 26.9 µM
786-0
  GI50: 17.8 µM
  LC50: 83.2 µM
  TGI: 38 µM
SK-OV-3
  GI50: 4.17 µM
  LC50: 85.1 µM
  TGI: 15.8 µM
UACC-62
  GI50: 3.31 µM
  LC50 (concentration causing 50% net cell kill): 28.2 µM
  TGI: 6.6 µM
SK-MEL-28
  GI50: 2.29 µM
  LC50 (concentration killing 50% of cells): 24.6 µM
  TGI: 5.49 µM
U-251
  GI50: 2.63 µM
  LC50 (concentration killing 50% of cells): 61.7 µM
  TGI: 6.16 µM
T47D
  GI50: 17.8 µM
  LC50: > 100 µM
  TGI: 61.7 µM
MDA-MB-435
  GI50: 3.02 µM
  LC50: 36.3 µM
  TGI: 9.55 µM
BT-549
  GI50: 1.99 µM
  LC50 (50% lethal concentration): 19.9 µM
  TGI: 5.49 µM
Hs-578T
  GI50: 2.29 µM
  LC50: 56.2 µM
  TGI: 6.6 µM
[1]
  GI50: 2.18 µM
  LC50 (concentration killing 50% of cells): 10.5 µM
  TGI: 4.67 µM
MDA-MB-231
  GI50: 3.02 µM
  LC50: 45.7 µM
  TGI: 7.41 µM
MCF7
  GI50: 11 µM
  LC50 (concentration killing 50% of cells): > 100 µM
  TGI: > 100 µM
UO-31
  GI50: 2.63 µM
  LC50 (concentration causing 50% net cell kill): 61.7 µM
  TGI: 10.5 µM
PC-3
  GI50: 3.02 µM
  LC50 (concentration causing 50% cell kill): 53.7 µM
  TGI: 10.5 µM
SN12C
  GI50: 3.38 µM
  LC50 (50% lethal concentration): 95.5 µM
  TGI: 8.71 µM
RXF 393
  GI50: 0.44 µM
  TGI: 2.34 µM
RXF 393; [6]
  CC50: 7.41 µM
SF-268 [2]
  GI50: 3.23 µM
  TGI: 10.9 µM
SF-268 [2]; [6]
  CC50: > 100 µM
KM12
  GI50: 16.6 µM
  TGI: 33.1 µM
KM12; [6]
  CC50: 66.1 µM
HCT-15
  GI50: 2.09 µM
  TGI: 4.67 µM
HCT-15; [6]
  CC50: 43.6 µM
COLO 205
  GI50: 3.89 µM
  TGI: > 100 µM
COLO 205; [6]
  CC50: > 100 µM
NCI-H522
  GI50: 1.82 µM
  TGI: 7.24 µM
NCI-H522; [6]
  CC50: > 100 µM
NCI-H460 [3]
  GI50: 15.5 µM
  TGI: 44.7 µM
NCI-H460 [3]; [6]
  CC50: > 100 µM
NCI-H322M
  GI50: 3.98 µM
  TGI: 13.8 µM
NCI-H322M; [6]
  CC50: 43.6 µM
NCI-H23
  GI50: 2.04 µM
  TGI: 4.36 µM
NCI-H23; [6]
  CC50: 9.33 µM
NCI-H226
  GI50: 4.57 µM
  TGI: 12.6 µM
NCI-H226; [6]
  CC50: 38.9 µM
HOP-62
  GI50: 2.51 µM
  TGI: 6.02 µM
HOP-62; [6]
  CC50: 19.9 µM
HOP-92
  GI50: 1.48 µM
  TGI: 4.26 µM
HOP-92; [6]
  CC50: 21.4 µM
MOLT-4
  GI50: 1.58 µM
  TGI: 5.24 µM
MOLT-4; [6]
  CC50: > 100 µM
CCRF-CEM
  GI50: 1.28 µM
  TGI: 3.23 µM
CCRF-CEM; [6]
  CC50: 8.12 µM
SF-268 [4]
  growth at 100 µM: 0%
NCI-H460 [5]
  growth at 100 µM: 0%

— ChEMBL document CHEMBL3044672, “N9- and N7-(Chloromethyl Phenymethyl)Chloropurine Derivatives from , '-Dichloroxylenes: Synthesis and Anticancer Activity” (2005)
